Laboratory results as given in US20240067631A1, “PYRAZOLE DERIVATIVES USEFUL AS NAMPT MODULATORS” (Cytokinetics, Inc., priority 2020, published 2024).

Biological target: human NAMPT (Homo sapiens (Human), UniProt P43490)
Assay: Human recombinant enzyme assay (NMN fluorescence biochemical assay)
Conditions: 6 nM human NAMPT, 60 min; for AC1.4 Human: concentration of compound that generates 40% higher activity over basal; for EC50: concentration that gives half-maximal activation
Method: Compounds described herein were assayed for their ability to stimulate the synthesis of nicotinamide mononucleotide (NMN) by the enzyme NAMPT. The human recombinant enzyme assay measures the activation of the enzyme activity by compounds using recombinant enzyme and substrates in a buffered cell-free system. The assay conditions closely mimic cellular environments. Dose responses were measured using an assay to detect the formation of nicotinamide mono-nucleotide. All experiments were performed in the 384-well format. Generally, 0.5 μL of DMSO containing varying concentrations of the test compound was mixed with 10 μL of the enzyme reagent solution. Enzyme reactions were initiated with the addition of 10 μL of a solution containing the substrates. The final assay conditions were as follows: 6 nM human NAMPT, 2.5 mM ATP, […] in 50 mM HEPES, pH 7.2, 1 mM DTT, 1 mM CHAPS 50 mM NaCl, 100 mM MgCl2. Following an incubation of 60 min at ambient temperature, 10 μL of 20% acetophenone in DMSO was added, followed by 10 μL of 2 M KOH and 40 μL of formic acid. The plates were read for fluorescence (Excitation/Emission=355 nm/460 nm) using an EnVision plate reader after 40 mins of incubation at ambient temperature. The potency measurements for compounds, are quantified and represented as AC1.4 (the concentration of compounds that generates 40% higher activity over basal) and EC50 (concentration of the compound that gives half-maximal activation).

Sequence of human NAMPT (P43490 whole entry): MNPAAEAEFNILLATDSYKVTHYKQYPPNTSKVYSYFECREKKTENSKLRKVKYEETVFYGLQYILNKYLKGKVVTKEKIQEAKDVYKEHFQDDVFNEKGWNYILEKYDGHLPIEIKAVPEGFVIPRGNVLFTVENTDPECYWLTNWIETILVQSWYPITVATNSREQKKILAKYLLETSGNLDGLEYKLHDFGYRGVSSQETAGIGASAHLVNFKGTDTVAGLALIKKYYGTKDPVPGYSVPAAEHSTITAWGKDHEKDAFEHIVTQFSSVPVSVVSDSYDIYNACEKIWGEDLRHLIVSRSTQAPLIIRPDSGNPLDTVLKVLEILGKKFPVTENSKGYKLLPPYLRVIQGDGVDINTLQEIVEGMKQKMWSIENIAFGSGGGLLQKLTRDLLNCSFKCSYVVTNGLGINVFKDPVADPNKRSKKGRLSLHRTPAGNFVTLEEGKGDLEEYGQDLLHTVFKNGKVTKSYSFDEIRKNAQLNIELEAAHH

| Compound | AC1.4 Human [µM] | EC50 [µM] |
| --- | --- | --- |
| Cc1nc(C(=O)N2CCC(C(F)(F)F)CC2)nc(NCCc2cn[nH]c2)c1C [Compound 119, (4-((2-(1H-pyrazol-4-yl)ethyl)amino)-5,6-dimethylpyrimidin-2-yl)(4-(trifluoromethyl)piperidin-1-yl)methanone] | 32.854 | 47.2 |
| Cc1nc(C(=O)N2CC(O)(c3ccccc3F)C2)nc(NCCc2cn[nH]c2)c1C [Compound 77, (4-((2-(1H-pyrazol-4-yl)ethyl)amino)-5,6-dimethylpyrimidin-2-yl)(3-(2-fluorophenyl)-3-hydroxyazetidin-1-yl)methanone] | 0.8835 | 13.7 |
| Cc1nc(C(=O)N[C@@H](C)c2ccncc2)nc(NCCc2cn[nH]c2)c1C [Compound 87, (S)-4-((2-(1H-pyrazol-4-yl)ethyl)amino)-5,6-dimethyl-N-(1-(pyridin-4-yl)ethyl)pyrimidine-2-carboxamide] | 1.1375 | 13.3 |
| Cc1nc(C(=O)NC(C)(C)c2ccc(F)cc2)nc(NCCc2cn[nH]c2)c1C [Compound 83, 4-((2-(1H-pyrazol-4-yl)ethyl)amino)-N-(2-(4-fluorophenyl)propan-2-yl)-5,6-dimethylpyrimidine-2-carboxamide] | 0.9695 | 14.5 |
| Cc1nc(C(=O)N2CCC2c2cccc(F)c2)nc(NCCc2cn[nH]c2)c1C (stereo not shown) [Compound 115, (4-((2-(1H-pyrazol-4-yl)ethyl)amino)-5,6-dimethylpyrimidin-2-yl)(2-(3-fluorophenyl)azetidin-1-yl)methanone] | 2.136 | 10.7 |
| Cc1nc(C(=O)N2CC(C(F)(F)F)C2)nc(NCCc2cn[nH]c2)c1C [Compound 100, (4-((2-(1H-pyrazol-4-yl)ethyl)amino)-5,6-dimethylpyrimidin-2-yl)(3-(trifluoromethyl)azetidin-1-yl)methanone] | 6.3085 | 40.2 |
| CCCN(CCc1cn[nH]c1)c1nc(C(N)=O)nc(C)c1C [Compound 106, 4-((2-(1H-pyrazol-4-yl)ethyl)(propyl)amino)-5,6-dimethylpyrimidine-2-carboxamide] | 1.7115 | 32.7 |
| Cc1nc(C(=O)N[C@@H](C)c2ccccc2Cl)nc(NCCc2cn[nH]c2)c1C [Compound 99, (S)-4-((2-(1H-pyrazol-4-yl)ethyl)amino)-N-(1-(2-chlorophenyl)ethyl)-5,6-dimethylpyrimidine-2-carboxamide] | 1.5915 | 20 |
| Cc1nc(C(=O)NC2(c3ccccc3)COC2)nc(NCCc2cn[nH]c2)c1C [Compound 114, 4-((2-(1H-pyrazol-4-yl)ethyl)amino)-5,6-dimethyl-N-(3-phenyloxetan-3-yl)pyrimidine-2-carboxamide] | 2.1125 | 23.1 |
| Cc1nc(C(=O)N2CC(C)(c3ccccc3)C2)nc(NCCc2cn[nH]c2)c1C [Compound 89, (4-((2-(1H-pyrazol-4-yl)ethyl)amino)-5,6-dimethylpyrimidin-2-yl)(3-methyl-3-phenylazetidin-1-yl)methanone] | 4.9195 | 37.3 |
| Cc1nc(C(=O)NC2(c3ccccn3)CCC2)nc(NCCc2cn[nH]c2)c1C [Compound 145, 4-((2-(1H-pyrazol-4-yl)ethyl)amino)-5,6-dimethyl-N-(1-(pyridin-2-yl)cyclobutyl)pyrimidine-2-carboxamide] | 4.9555 | 22.4 |
| Cc1nc(C(=O)Nc2cc(F)cc(F)c2)nc(NCCc2cn[nH]c2)c1C [Compound 117, 4-((2-(1H-pyrazol-4-yl)ethyl)amino)-N-(3,5-difluorophenyl)-5,6-dimethylpyrimidine-2-carboxamide] | 2.2385 | 47.6 |
| Cc1nc(C(=O)N2CCC2c2ccccc2)nc(NCCc2cn[nH]c2)c1C (stereo not shown) [Compound 132, (4-((2-(1H-pyrazol-4-yl)ethyl)amino)-5,6-dimethylpyrimidin-2-yl)(2-phenylazetidin-1-yl)methanone] | 3.5055 | 13.1 |
| Cc1nc(C(=O)NCC2(c3cccc(F)c3)COC2)nc(NCCc2cn[nH]c2)c1C [Compound 74, 4-((2-(1H-pyrazol-4-yl)ethyl)amino)-N-((3-(3-fluorophenyl)oxetan-3-yl)methyl)-5,6-dimethylpyrimidine-2-carboxamide] | 0.715 | 8.01 |
| Cc1nc(C(=O)NCC(F)(F)c2ccccc2)nc(NCCc2cn[nH]c2)c1C [Compound 111, 4-((2-(1H-pyrazol-4-yl)ethyl)amino)-N-(2,2-difluoro-2-phenylethyl)-5,6-dimethylpyrimidine-2-carboxamide] | 1.9995 | 18.5 |

Compounds with a lower EC50, results first:

| AC1.4 Human [µM] | EC50 [µM] | Compound |
| --- | --- | --- |
| 0.2015 | 0.882 | Cc1nc(C(=O)NC(C)c2cccc(Cl)n2)nc(NCCc2cn[nH]c2)c1C (stereo not shown) [Compound 36, 4-((2-(1H-pyrazol-4-yl)ethyl)amino)-N-(1-(6-chloropyridin-2-yl)ethyl)-5,6-dimethylpyrimidine-2-carboxamide] |
| 1.1435 | 7.21 | COc1cccc(CNC(=O)c2nc(C)c(C)c(NCCc3cn[nH]c3)n2)n1 [Compound 88, 4-((2-(1H-pyrazol-4-yl)ethyl)amino)-N-((6-methoxypyridin-2-yl)methyl)-5,6-dimethylpyrimidine-2-carboxamide] |
| 0.2615 | 1.38 | Cc1nc(C(=O)NC(c2ccccc2)C(F)(F)F)nc(NCCc2cn[nH]c2)c1C (stereo not shown) [Compound 33, 4-((2-(1H-pyrazol-4-yl)ethyl)amino)-5,6-dimethyl-N-(2,2,2-trifluoro-1-phenylethyl)pyrimidine-2-carboxamide] |
| 0.2915 | 2 | Cc1nc(C(=O)N[C@H](C)c2ccccn2)nc(NCCc2cn[nH]c2)c1C [Compound 47, (R)-4-((2-(1H-pyrazol-4-yl)ethyl)amino)-5,6-dimethyl-N-(1-(pyridin-2-yl)ethyl)pyrimidine-2-carboxamide] |
| 0.966 | 3.99 | COC[C@@H](NC(=O)c1nc(C)c(C)c(NCCc2cn[nH]c2)n1)c1cccc(F)c1 [Compound 82, (S)-4-((2-(1H-pyrazol-4-yl)ethyl)amino)-N-(1-(3-fluorophenyl)-2-methoxyethyl)-5,6-dimethylpyrimidine-2-carboxamide] |
| 0.4295 | 3.21 | Cc1nc(C(=O)N2C[C@@H](C)OC[C@H]2c2ccccc2)nc(NCCc2cn[nH]c2)c1C [Compound 62, (4-((2-(1H-pyrazol-4-yl)ethyl)amino)-5,6-dimethylpyrimidin-2-yl)((2R,5R)-2-methyl-5-phenylmorpholino)methanone] |
| 0.144 | 1.36 | Cc1nc(C(=O)N2CCC(F)(F)CC2c2ccccc2)nc(NCCc2cn[nH]c2)c1C (stereo not shown) [Compound 28, (4-((2-(1H-pyrazol-4-yl)ethyl)amino)-5,6-dimethylpyrimidin-2-yl)(4,4-difluoro-2-phenylpiperidin-1-yl)methanone] |
| 0.396 | 2.88 | Cc1nc(C(=O)NCC2CN(C(=O)c3ccccc3)C2)nc(NCCc2cn[nH]c2)c1C [Compound 57, 4-((2-(1H-pyrazol-4-yl)ethyl)amino)-N-((1-benzoylazetidin-3-yl)methyl)-5,6-dimethylpyrimidine-2-carboxamide] |
